Entries after “also recorded” stand apart in the source; their conditions may differ.
What was measured:
[1] = tested on: LQTS2-EBs; assay: Microelectrode array (MEA) extracellular field potential recordings, LQTS2; format: cell-based, human; details: for cFPD (repolarization duration): human LQTS2 CMs
From the text: (§1) To characterize the electrophysiological properties of the hiPS-CMs, a microelectrode array (MEA) recording system (Multichannel Systems, Reutlingen, Germany) was used as described previously. Briefly, contracting areas were micro-dissected and plated on MEA plates, allowed to adjust for 72 hrs before recording. All clusters were monitored for their beating abilities (beats/min) under the microscope during the 72 hr period. Clusters that maintained relatively uniform beating rates were then subjected to drugs. The MEA system allows simultaneous recordings from 60 titanium nitride-coated gold electrodes (30 μm) at high spatial (200 μm) and temporal (15 kHz) resolutions. All stock drugs were diluted in medium (2 mL) to assess the effects on the electrophysiological properties. […]. MEA clip along with the beating clusters was maintained on 37° C. throughout the duration of experiments. Care was also taken that all buffers including the medium utilized during all experimentation were pre-warmed to 37° C. All tested drugs were procured from Sigma-Aldrich, MO, USA. All extracellular recordings were performed for 180 seconds at baseline and at 5 minutes after drug application at 37° C. Data were recorded using MC Rack software (Multichannel System) and the recordings were used to determine the local field potential duration (FPD). FPD measurements were normalized (corrected FPD [cFPD]) to the beating rate of the contracting areas with the Bazzet correction formula: cFPD=FPD/√(RR interval).

[2] = tested on: control-EBs; assay: Microelectrode array (MEA) extracellular field potential recordings, control; format: cell-based, human; details: 100 nM E-4031, control contracting EBs
From the text: as §1, with “FPD measurements were normalized (corrected FPD [cFPD]) to the beating rate of the contracting areas with the Bazzet correction formula: cFPD=FPD/√(RR interval).” left out

[3] = atenolol 10 μM after isoproterenol, LQTS2-EBs

For `O=C([O-])CCCc1ccccc1.[Na+]` [4PBA, sodium 4-phenylbutyrate], the “cFPD (repolarization duration)” value ([1]; sodium 4-phenylbutyrate 400 μM) was “shortening the cFPD” and the “cFPD (repolarization duration)” value ([1]; sodium 4-phenylbutyrate 400 μM, listed as 4BPA) was “shortening of repolarization duration”.

With `Cc1cccc(CCN2CCC(C(=O)c3ccc(NS(C)(=O)=O)cc3)CC2)n1` [E-4031] the “beating rate-corrected field potential duration (cFPD)” value [2] was “increased cFPDs significantly” and the “beating rate-corrected field potential duration (cFPD)” value ([1]; 100 nM E-4031, LQTS2 contracting EBs) was “increased cFPDs significantly”.

For `Cc1ccc(NC(=O)C2(c3ccc4c(c3)OC(F)(F)O4)CC2)nc1-c1cccc(C(=O)O)c1` [VX-809, 3-[6-[[1-(2,2-difluoro-1,3-benzodioxol-5-yl)cyclopropanecarbonyl]amino]-3-methylpyridin-2-yl]benzoic acid], the “cFPD (repolarization duration)” value ([1]; VX-809 10 μM) was “shortening the cFPD; also recorded: shortening of repolarization duration”.

With `CC(C)NCC(O)COc1ccc(CC(N)=O)cc1` (stereo not shown) [atenolol] the beating frequencies [1, 3] was “reduced the beating frequencies” and the cFPD [1, 3] was “restored cFPDs”.

For `CC(C)NCC(O)c1ccc(O)c(O)c1` (stereo not shown) [isoproterenol], the arrhythmogenic episodes ([1]; isoproterenol 1 uM, LQTS2-EBs) was “aggravating arrhythmogenic episodes”, the beating frequencies ([1]; isoproterenol 1 uM, LQTS2-EBs) was “increased beating frequencies” and the cFPD ([1]; isoproterenol 1 uM, LQTS2-EBs, n=15, LQTS2-baseline 0.657±0.07 s) was 0.212 ± 0.02 s.

Reference: US9797883B2, “Re-trafficking of herg reverses long QT syndrome 2 phenotype in human iPS-derived cardiomyocytes” (Singapore Health Services Pte Ltd, priority 2013, dated 2017)
